Test results from ChEMBL document CHEMBL3638714, “Fused heterocyclic derivative and pharmaceutical use thereof” (2015).
pIC50: −log10 of the molar value.

biological target: Xanthine dehydrogenase/oxidase (Bos taurus, UniProt P80457); test: Inhibition Assay: Xanthine oxidase (from bovine milk, Sigma) was prepared with phosphate-buffered saline (PBS) at 0.02 units/mL, and then the solution was added to 96 well plates at 50 μL/well. In addition, test compounds diluted with PBS were added at 50 μL/well. Xanthine (manufactured by Wako pure chemical) at 200 μM prepared with PBS was added at 100 μL/well, and the reaction was conducted for 10 minutes at room temperature. Absorbance at 290 nm was measured by using a microplate reader SpectraMax Plus 384 (manufactured by Molecular device).
Sequence (P80457 whole entry): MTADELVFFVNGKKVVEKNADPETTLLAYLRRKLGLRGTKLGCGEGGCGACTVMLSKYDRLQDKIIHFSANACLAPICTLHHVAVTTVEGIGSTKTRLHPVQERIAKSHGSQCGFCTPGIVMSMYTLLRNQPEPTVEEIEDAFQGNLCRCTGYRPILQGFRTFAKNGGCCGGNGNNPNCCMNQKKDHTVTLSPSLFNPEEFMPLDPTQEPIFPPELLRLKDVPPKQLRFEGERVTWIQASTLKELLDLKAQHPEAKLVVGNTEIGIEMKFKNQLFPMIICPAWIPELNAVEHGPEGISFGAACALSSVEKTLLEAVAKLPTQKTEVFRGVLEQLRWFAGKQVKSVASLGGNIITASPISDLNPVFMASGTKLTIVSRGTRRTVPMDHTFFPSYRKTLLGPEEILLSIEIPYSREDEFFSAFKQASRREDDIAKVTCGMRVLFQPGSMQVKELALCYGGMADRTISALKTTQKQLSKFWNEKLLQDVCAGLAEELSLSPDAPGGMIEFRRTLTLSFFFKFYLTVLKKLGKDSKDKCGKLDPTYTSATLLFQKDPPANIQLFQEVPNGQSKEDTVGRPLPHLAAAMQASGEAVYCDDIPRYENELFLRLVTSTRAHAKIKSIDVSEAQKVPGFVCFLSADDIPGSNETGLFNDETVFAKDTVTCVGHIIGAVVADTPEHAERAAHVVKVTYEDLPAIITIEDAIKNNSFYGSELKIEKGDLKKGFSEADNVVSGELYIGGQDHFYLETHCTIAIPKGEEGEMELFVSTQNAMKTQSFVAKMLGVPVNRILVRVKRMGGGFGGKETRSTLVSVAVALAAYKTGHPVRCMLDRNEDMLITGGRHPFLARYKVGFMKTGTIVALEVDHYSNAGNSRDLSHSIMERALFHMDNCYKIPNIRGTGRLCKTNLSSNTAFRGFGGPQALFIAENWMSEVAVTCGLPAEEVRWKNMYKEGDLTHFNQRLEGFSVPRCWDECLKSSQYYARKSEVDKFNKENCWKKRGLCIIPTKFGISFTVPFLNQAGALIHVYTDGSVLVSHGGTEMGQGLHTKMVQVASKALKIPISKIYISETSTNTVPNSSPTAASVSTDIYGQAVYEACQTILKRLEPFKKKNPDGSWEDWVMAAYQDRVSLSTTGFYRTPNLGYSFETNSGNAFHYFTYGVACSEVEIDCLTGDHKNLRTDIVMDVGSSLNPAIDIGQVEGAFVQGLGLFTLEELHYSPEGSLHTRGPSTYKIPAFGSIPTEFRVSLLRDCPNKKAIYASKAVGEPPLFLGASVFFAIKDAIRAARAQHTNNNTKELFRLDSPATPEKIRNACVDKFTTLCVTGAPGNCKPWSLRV

Row | pIC50 | Structure (SMILES)
1 | 7.85 | [C-]#[N+]c1cn(-c2ccc(C(=O)O)c(O)c2)c2sc(Br)cc12
2 | 8.00 | [C-]#[N+]c1cn(-c2ccc(C(=O)O)c(O)c2)c2cscc12
3 | 7.89 | [C-]#[N+]c1cn(-c2ccc(C(=O)O)c(O)c2)c2sccc12
